# According to ChEMBL document CHEMBL3885861, “Open TG-GATES”:
# Species on record: Rattus norvegicus
# Experiment: Open TG-GATES - Regimen: Single
# Type: toxicity, organism-based, Sprague-Dawley
# Design: regimen Single, gender Male, age 6 weeks
# Conditions: in vivo, po, route gavage; for APTT / Bas / Eos / Fbg / Hb / Ht / Lym / MCH / MCHC / MCV / Mono / Neu / PT / Plat / Ret / WBC: tissue Blood; for KIDNEY_L / KIDNEY_R / KIDNEY_TOTAL: tissue Kidney; for LIVER: tissue Liver; for ALP / ALT / AST / BUN / CRE / Ca / DBIL / GLC / IP / K / LDH / Na / PL / RALB / TBIL / TC / TG / TP / gamma-GTP: tissue Plasma
# [1] = 30 mg/kg, 3 h, dose level Middle
# [2] = 30 mg/kg, 6 h, dose level Middle
# [3] = 30 mg/kg, 9 h, dose level Middle
# [4] = 30 mg/kg, 24 h, dose level Middle
# [5] = 100 mg/kg, 3 h, dose level High
# [6] = 100 mg/kg, 6 h, dose level High
# [7] = 100 mg/kg, 9 h, dose level High
# [8] = 100 mg/kg, 24 h, dose level High
compound,measurement,setting,value
CN(C)CCCN1c2ccccc2CCc2ccc(Cl)cc21 [CLOMIPRAMINE],APTT,[1],16.4 s
same,Bas,[1],0.2%
same,Eos,[1],0.6%
same,Fbg,[1],254 mg/dL
same,Hb,[1],14.2 g/dL
same,Ht,[1],43.6%
same,Lym,[1],71.2%
same,MCH,[1],21 pg
same,MCHC,[1],32.6%
same,MCV,[1],64.5 fL
same,Mono,[1],2.8%
same,Neu,[1],24%
same,PT,[1],13.6 s
same,Plat,[1],115.5 x10_4/uL
same,Ret,[1],7.9%
same,WBC,[1],95.4 x10_2/uL
same,KIDNEY_L,[1],1 g
same,KIDNEY_R,[1],1 g
same,KIDNEY_TOTAL,[1],1.9 g
same,LIVER,[1],9.7 g
same,ALP,[1],1675.2 IU/L
same,ALT,[1],38.4 IU/L
same,AST,[1],77.8 IU/L
same,BUN,[1],9.8 mg/dL
same,CRE,[1],0.2 mg/dL
same,Ca,[1],10.8 mg/dL
same,DBIL,[1],0.016 mg/dL
same,GLC,[1],187.8 mg/dL
same,IP,[1],9.6 mg/dL
same,K,[1],4 meq/L
same,LDH,[1],96 IU/L
same,Na,[1],141 meq/L
same,PL,[1],145.4 mg/dL
same,RALB,[1],2.5 g/dL
same,TBIL,[1],0.062 mg/dL
same,TC,[1],75.2 mg/dL
same,TG,[1],78.8 mg/dL
same,TP,[1],5.2 g/dL
same,gamma-GTP,[1],1 IU/L
same,TERMINAL_BW,[2],214.2 g
same,APTT,[2],15.9 s
same,Bas,[2],0.2%
same,Eos,[2],0.8%
same,Fbg,[2],241.2 mg/dL
same,Hb,[2],14.1 g/dL
same,Ht,[2],43.9%
same,Lym,[2],78.2%
same,MCH,[2],20.2 pg
same,MCHC,[2],32.2%
same,MCV,[2],62.8 fL
same,Mono,[2],2.6%
same,Neu,[2],17.2%
same,PT,[2],13.7 s
same,Plat,[2],114.1 x10_4/uL
same,Ret,[2],7.6%
same,WBC,[2],82.3 x10_2/uL
same,KIDNEY_L,[2],1 g
same,KIDNEY_R,[2],1 g
same,KIDNEY_TOTAL,[2],2 g
same,LIVER,[2],9.2 g
same,ALP,[2],1672.6 IU/L
same,ALT,[2],39.2 IU/L
same,AST,[2],73.8 IU/L
same,BUN,[2],7.2 mg/dL
same,CRE,[2],0.2 mg/dL
same,DBIL,[2],0.02 mg/dL
same,GLC,[2],186.4 mg/dL
same,IP,[2],9.9 mg/dL
same,K,[2],4.2 meq/L
same,LDH,[2],75.4 IU/L
same,Na,[2],141.4 meq/L
same,PL,[2],134.6 mg/dL
same,RALB,[2],2.5 g/dL
same,TBIL,[2],0.068 mg/dL
same,TC,[2],74.4 mg/dL
same,TG,[2],55.8 mg/dL
same,TP,[2],5.3 g/dL
same,gamma-GTP,[2],1.2 IU/L
same,TERMINAL_BW,[3],211.3 g
same,APTT,[3],17.1 s
same,Bas,[3],0%
same,Eos,[3],1.2%
same,Fbg,[3],273.6 mg/dL
same,Hb,[3],13.9 g/dL
same,Ht,[3],42.6%
same,Lym,[3],77.8%
same,MCH,[3],20.4 pg
same,MCHC,[3],32.6%
same,MCV,[3],62.6 fL
same,Mono,[3],2.2%
same,Neu,[3],17.8%
same,PT,[3],13.8 s
same,Plat,[3],124.6 x10_4/uL
same,Ret,[3],7.7%
same,WBC,[3],83.2 x10_2/uL
same,KIDNEY_L,[3],1 g
same,KIDNEY_R,[3],0.9 g
same,KIDNEY_TOTAL,[3],1.9 g
same,LIVER,[3],8.5 g
same,ALP,[3],1468.8 IU/L
same,ALT,[3],36.2 IU/L
same,AST,[3],71.8 IU/L
same,BUN,[3],7.4 mg/dL
same,CRE,[3],0.2 mg/dL
same,Ca,[3],10.5 mg/dL
same,DBIL,[3],0.024 mg/dL
same,GLC,[3],174 mg/dL
same,IP,[3],10.5 mg/dL
same,K,[3],4.1 meq/L
same,LDH,[3],86.4 IU/L
same,Na,[3],140.6 meq/L
same,PL,[3],143 mg/dL
same,RALB,[3],2.6 g/dL
same,TBIL,[3],0.076 mg/dL
same,TC,[3],83.4 mg/dL
same,TG,[3],34.2 mg/dL
same,TP,[3],5.4 g/dL
same,gamma-GTP,[3],1 IU/L
same,TERMINAL_BW,[4],231.8 g
same,APTT,[4],16.9 s
same,Bas,[4],0%
same,Eos,[4],0.6%
same,Fbg,[4],247.6 mg/dL
same,Ht,[4],41.2%
same,Lym,[4],81.6%
same,MCH,[4],20.6 pg
same,MCHC,[4],32.3%
same,MCV,[4],63.9 fL
same,Mono,[4],2.6%
same,Neu,[4],14%
same,PT,[4],13.8 s
same,Plat,[4],116.6 x10_4/uL
same,Ret,[4],7.1%
same,WBC,[4],83.8 x10_2/uL
same,KIDNEY_L,[4],1 g
same,KIDNEY_R,[4],1 g
same,KIDNEY_TOTAL,[4],2.1 g
same,LIVER,[4],10.5 g
same,ALP,[4],2253 IU/L
same,ALT,[4],44.2 IU/L
same,AST,[4],76.8 IU/L
same,BUN,[4],13.2 mg/dL
same,CRE,[4],0.2 mg/dL
same,Ca,[4],10.9 mg/dL
same,DBIL,[4],0.028 mg/dL
same,GLC,[4],179 mg/dL
same,IP,[4],8 mg/dL
same,K,[4],4.1 meq/L
same,LDH,[4],93.8 IU/L
same,Na,[4],141.4 meq/L
same,PL,[4],159 mg/dL
same,RALB,[4],2.6 g/dL
same,TBIL,[4],0.062 mg/dL
same,TC,[4],80.2 mg/dL
same,TG,[4],115.2 mg/dL
same,TP,[4],5.5 g/dL
same,gamma-GTP,[4],1.2 IU/L
same,TERMINAL_BW,[5],215.5 g
same,APTT,[5],16.9 s
same,Bas,[5],0%
same,Eos,[5],0.8%
same,Fbg,[5],257.8 mg/dL
same,Hb,[5],14.1 g/dL
same,Ht,[5],43.3%
same,Lym,[5],77.8%
same,MCH,[5],21.2 pg
same,MCHC,[5],32.6%
same,MCV,[5],64.9 fL
same,Mono,[5],3.4%
same,Neu,[5],17.2%
same,PT,[5],13.5 s
same,Plat,[5],125.6 x10_4/uL
same,Ret,[5],8%
same,WBC,[5],69.8 x10_2/uL
same,KIDNEY_L,[5],1 g
same,KIDNEY_R,[5],0.9 g
same,KIDNEY_TOTAL,[5],1.9 g
same,LIVER,[5],10.1 g
same,ALP,[5],1835 IU/L
same,ALT,[5],42.8 IU/L
same,AST,[5],76.6 IU/L
same,BUN,[5],7.4 mg/dL
same,CRE,[5],0.1 mg/dL
same,Ca,[5],10.5 mg/dL
same,DBIL,[5],0.036 mg/dL
same,GLC,[5],188.8 mg/dL
same,IP,[5],9.6 mg/dL
same,K,[5],3.9 meq/L
same,LDH,[5],116.6 IU/L
same,Na,[5],142.2 meq/L
same,PL,[5],147 mg/dL
same,RALB,[5],2.5 g/dL
same,TBIL,[5],0.068 mg/dL
same,TC,[5],73.8 mg/dL
same,TG,[5],85.4 mg/dL
same,TP,[5],5.3 g/dL
same,gamma-GTP,[5],1 IU/L
same,TERMINAL_BW,[6],210.3 g
same,APTT,[6],17.8 s
same,Bas,[6],0%
same,Eos,[6],1%
same,Fbg,[6],276 mg/dL
same,Hb,[6],14.2 g/dL
same,Ht,[6],44%
same,Lym,[6],75.6%
same,MCH,[6],21.3 pg
same,MCHC,[6],32.2%
same,MCV,[6],66.2 fL
same,Mono,[6],2.8%
same,Neu,[6],20%
same,PT,[6],13.9 s
same,Plat,[6],125.1 x10_4/uL
same,Ret,[6],8.2%
same,WBC,[6],69.9 x10_2/uL
same,KIDNEY_L,[6],1 g
same,KIDNEY_R,[6],1 g
same,KIDNEY_TOTAL,[6],2 g
same,LIVER,[6],9.2 g
same,ALP,[6],1949.8 IU/L
same,ALT,[6],40.6 IU/L
same,AST,[6],76.2 IU/L
same,BUN,[6],6.8 mg/dL
same,CRE,[6],0.1 mg/dL
same,Ca,[6],10.4 mg/dL
same,DBIL,[6],0.042 mg/dL
same,GLC,[6],187.4 mg/dL
same,IP,[6],9.7 mg/dL
same,K,[6],4.1 meq/L
same,LDH,[6],103.8 IU/L
same,Na,[6],142.8 meq/L
same,PL,[6],134.6 mg/dL
same,RALB,[6],2.5 g/dL
same,TBIL,[6],0.064 mg/dL
same,TC,[6],71.4 mg/dL
same,TG,[6],53 mg/dL
same,TP,[6],5.2 g/dL
same,gamma-GTP,[6],1 IU/L
same,TERMINAL_BW,[7],208.4 g
same,APTT,[7],16.6 s
same,Bas,[7],0%
same,Eos,[7],1%
same,Fbg,[7],270.4 mg/dL
same,Hb,[7],14.1 g/dL
same,Ht,[7],43.6%
same,Lym,[7],71.2%
same,MCH,[7],21 pg
same,MCHC,[7],32.3%
same,MCV,[7],65.1 fL
same,Mono,[7],2%
same,Neu,[7],25.2%
same,PT,[7],13.9 s
same,Plat,[7],144.8 x10_4/uL
same,Ret,[7],8.1%
same,WBC,[7],72.8 x10_2/uL
same,KIDNEY_L,[7],1 g
same,KIDNEY_R,[7],1 g
same,KIDNEY_TOTAL,[7],2 g
same,LIVER,[7],9 g
same,ALP,[7],1702 IU/L
same,ALT,[7],32.4 IU/L
same,AST,[7],71.2 IU/L
same,BUN,[7],6.4 mg/dL
same,CRE,[7],0.1 mg/dL
same,Ca,[7],10.2 mg/dL
same,DBIL,[7],0.04 mg/dL
same,GLC,[7],194.6 mg/dL
same,IP,[7],9.8 mg/dL
same,K,[7],3.7 meq/L
same,LDH,[7],91 IU/L
same,Na,[7],142.6 meq/L
same,PL,[7],137.4 mg/dL
same,RALB,[7],2.5 g/dL
same,TBIL,[7],0.064 mg/dL
same,TC,[7],72.8 mg/dL
same,TG,[7],39 mg/dL
same,TP,[7],5.2 g/dL
same,gamma-GTP,[7],1 IU/L
same,TERMINAL_BW,[8],217.7 g
same,APTT,[8],19.3 s
same,Bas,[8],0.2%
same,Eos,[8],1%
same,Fbg,[8],278.8 mg/dL
same,Hb,[8],14.1 g/dL
same,Ht,[8],43.4%
same,Lym,[8],78.2%
same,MCH,[8],20.6 pg
same,MCHC,[8],32.5%
same,MCV,[8],63.5 fL
same,Mono,[8],2.6%
same,Neu,[8],17.4%
same,PT,[8],13.5 s
same,Plat,[8],144.2 x10_4/uL
same,Ret,[8],7.4%
same,WBC,[8],91.7 x10_2/uL
same,KIDNEY_L,[8],1 g
same,KIDNEY_R,[8],1 g
same,KIDNEY_TOTAL,[8],2 g
same,LIVER,[8],9.6 g
same,ALP,[8],1855 IU/L
same,ALT,[8],43 IU/L
same,AST,[8],69.8 IU/L
same,BUN,[8],15.4 mg/dL
same,CRE,[8],0.2 mg/dL
same,Ca,[8],10.8 mg/dL
same,DBIL,[8],0.046 mg/dL
same,GLC,[8],180.6 mg/dL
same,IP,[8],8.3 mg/dL
same,K,[8],4 meq/L
same,LDH,[8],92 IU/L
same,Na,[8],141.8 meq/L
same,PL,[8],168.4 mg/dL
same,RALB,[8],2.7 g/dL
same,TBIL,[8],0.056 mg/dL
same,TC,[8],98.2 mg/dL
same,TG,[8],96.2 mg/dL
same,TP,[8],5.7 g/dL
same,gamma-GTP,[8],1 IU/L
